Data taken from PubChem BioAssay (NCI).
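Where inhibition never reached the appropriate level, the endpoint shown equals the highest concentration tested. Otherwise, values were interpolated linearly from a five-concentration, 48-hour dose response in 96-well plates. GI50 is the concentration that inhibits growth by half. At the TGI there is no net growth.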

What was measured:
Assay in all cases: NCI tumour cell line growth inhibition, 48 h
[1] = tested on: 786-0 renal
[2] = tested on: A498 renal
[3] = tested on: A549 NSCLC
[4] = tested on: ACHN renal
[5] = tested on: BT-549 breast
[6] = tested on: CCRF-CEM leukemia
[7] = tested on: COLO 205 colon
[8] = tested on: DU-145 prostate
[9] = tested on: EKVX NSCLC
[10] = tested on: HCC-2998 colon
[11] = tested on: HCT-116 colon
[12] = tested on: HCT-15 colon
[13] = tested on: HL-60(TB) leukemia
[14] = tested on: HOP-62 NSCLC
[15] = tested on: HOP-92 NSCLC
[16] = tested on: HS 578T breast
[17] = tested on: HT29 colon
[18] = tested on: IGROV1 ovarian
[19] = tested on: K-562 leukemia
[20] = tested on: KM12 colon
[21] = tested on: LOX IMVI melanoma
[22] = tested on: M14 melanoma
[23] = tested on: MALME-3M melanoma
[24] = tested on: MCF7 breast
[25] = tested on: MDA-MB-231 breast
[26] = tested on: MDA-MB-435
[27] = tested on: MOLT-4 leukemia
[28] = tested on: NCI-H226 lung
[29] = tested on: NCI-H23 lung
[30] = tested on: NCI-H460 lung
[31] = tested on: NCI-H522 lung
[32] = tested on: NCI/ADR-RES ovarian
[33] = tested on: OVCAR-3 ovarian
[34] = tested on: OVCAR-4 ovarian
[35] = tested on: OVCAR-5 ovarian
[36] = tested on: OVCAR-8 ovarian
[37] = tested on: PC-3 prostate
[38] = tested on: RPMI-8226 leukemia
[39] = tested on: RXF 393 renal
[40] = tested on: SF-268 CNS
[41] = tested on: SF-295 CNS
[42] = tested on: SF-539 CNS
[43] = tested on: SK-MEL-2 melanoma
[44] = tested on: SK-MEL-28 melanoma
[45] = tested on: SK-MEL-5 melanoma
[46] = tested on: SK-OV-3 ovarian
[47] = tested on: SN12C renal
[48] = tested on: SNB-19 CNS
[49] = tested on: SNB-75 CNS
[50] = tested on: SR leukemia
[51] = tested on: SW-620 colon
[52] = tested on: T-47D breast
[53] = tested on: TK-10 renal
[54] = tested on: U251 CNS
[55] = tested on: UACC-257 melanoma
[56] = tested on: UACC-62 melanoma
[57] = tested on: UO-31 renal

Structure (SMILES): C=CCCCC(=O)CCC(=O)OCC1O[C@@H](O[C@@H]2C(O)[C@@H](OC(C)=O)C(C)O[C@H]2O[C@H](CC=C)CCCCC)C(O)[C@@H](OC(=O)/C(C)=C/C)[C@@H]1OC(=O)/C=C/c1ccccc1 (some centres not stated)
- GI50 [1]: 0.316 µM
- TGI [1]: > 50 µM
- GI50 [2]: 0.612 µM
- TGI [2]: > 50 µM
- GI50 [3]: 0.0345 µM
- TGI [3]: > 50 µM
- GI50 [4]: 0.151 µM
- TGI [4]: > 50 µM
- GI50 [5]: 0.345 µM
- TGI [5]: > 50 µM
- GI50 [6]: 0.551 µM
- TGI [6]: > 50 µM
- GI50 [7]: 0.088 µM
- TGI [7]: 1.55 µM
- GI50 [8]: 0.292 µM
- TGI [8]: > 50 µM
- GI50 [9]: 0.428 µM
- TGI [9]: > 50 µM
- GI50 [10]: 1.08 µM
- TGI [10]: > 50 µM
- GI50 [11]: 0.0262 µM
- TGI [11]: > 50 µM
- GI50 [12]: 0.263 µM
- TGI [12]: > 50 µM
- GI50 [13]: 0.673 µM
- TGI [13]: 3.34 µM
- GI50 [14]: 0.235 µM
- TGI [14]: > 50 µM
- GI50 [15]: 0.0384 µM
- GI50 [16]: 0.131 µM
- TGI [16]: > 50 µM
- GI50 [17]: 0.0251 µM
- TGI [17]: 3.06 µM
- GI50 [18]: 0.28 µM
- TGI [18]: > 50 µM
- GI50 [19]: 0.267 µM
- TGI [19]: > 50 µM
- GI50 [20]: 0.142 µM
- TGI [20]: > 50 µM
- GI50 [21]: 0.0275 µM
- TGI [21]: 0.127 µM
- GI50 [22]: 0.0633 µM
- GI50 [23]: 0.871 µM
- TGI [23]: > 50 µM
- GI50 [24]: 0.0316 µM
- TGI [24]: > 50 µM
- GI50 [25]: 0.00866 µM
- TGI [25]: 0.0309 µM
- GI50 [26]: 0.0216 µM
- TGI [26]: > 50 µM
- GI50 [27]: 2.09 µM
- TGI [27]: > 50 µM
- GI50 [28]: 0.564 µM
- TGI [28]: > 50 µM
- GI50 [29]: 0.995 µM
- TGI [29]: > 50 µM
- GI50 [30]: 0.0656 µM
- TGI [30]: > 50 µM
- GI50 [31]: 0.248 µM
- TGI [31]: > 50 µM
- GI50 [32]: 1.92 µM
- TGI [32]: > 50 µM
- GI50 [33]: 0.29 µM
- TGI [33]: > 50 µM
- GI50 [34]: 2.29 µM
- TGI [34]: > 50 µM
- GI50 [35]: 1.44 µM
- TGI [35]: > 50 µM
- GI50 [36]: 0.173 µM
- TGI [36]: > 50 µM
- GI50 [37]: 0.198 µM
- TGI [37]: > 50 µM
- GI50 [38]: 0.18 µM
- TGI [38]: 3.26 µM
- GI50 [39]: 0.0766 µM
- TGI [39]: > 50 µM
- GI50 [40]: 0.505 µM
- TGI [40]: > 50 µM
- GI50 [41]: 0.0144 µM
- TGI [41]: 5.51 µM
- GI50 [42]: 0.0546 µM
- TGI [42]: 12.3 µM
- GI50 [43]: 0.609 µM
- TGI [43]: > 14.7 µM
- GI50 [44]: 0.34 µM
- TGI [44]: > 50 µM
- GI50 [45]: 0.0352 µM
- TGI [45]: 0.517 µM
- GI50 [46]: 0.959 µM
- TGI [46]: > 50 µM
- GI50 [47]: 0.0881 µM
- TGI [47]: 2.11 µM
- GI50 [48]: 0.518 µM
- TGI [48]: > 50 µM
- GI50 [49]: 0.0133 µM
- TGI [49]: > 28 µM
- GI50 [50]: 0.142 µM
- TGI [50]: 1.83 µM
- GI50 [51]: 0.122 µM
- TGI [51]: > 50 µM
- GI50 [52]: 0.0273 µM
- TGI [52]: 1.21 µM
- GI50 [53]: 0.106 µM
- TGI [53]: > 50 µM
- GI50 [54]: 0.0297 µM
- TGI [54]: > 50 µM
- GI50 [55]: 0.0791 µM
- TGI [55]: 8.11 µM
- GI50 [56]: 0.19 µM
- TGI [56]: 5.62 µM
- GI50 [57]: 0.033 µM
- TGI [57]: > 50 µM
